Measured values as given in US10966423B2, “Anti-microbial agent comprising xanthohumol and the use thereof in food products” (Purac Biochem B.V., priority 2015, dated 2021).
≈ marks a conversion by molar mass, not a printed value. Like-named read-outs stand apart in the source and are kept apart here.

What was measured:
Type in all cases: cell-based
[1] = test system: lactic acid bacteria (L. curvatus, 3×L. plantarum and L. mesenteroides); assay: shelf life of sausages inoculated with lactic acid bacteria
Method: Sausages were produced according to the following procedure. The ingredients defined as weight percentages in Table 5 were used for the preparation of the sausage. Xanthoflav was used as such, without a preparation step such as applied in Example 1.
First the meat was shredded, and salt, tri polyphosphate and half of the water was added. After mixing very well, the other ingredients were added. The meat dough was put in a cook crimp bag and vacuum sealed. After sealing the bags were canned. The sausages were cooked in a cooking cabinet for 120 minutes at 75° C. and afterwards cooled down to 15° C. […]
In a first step an inoculum was prepared as follows. Cultures of lactic acid bacteria (L. curvatus, 3×L. plantarum and L. mesenteroides) are started from plate and incubated overnight at 30° C. in screw-capped tubes (100×16 mm) containing 10 ml MRS broth.
Sausages were inoculated to a final level of about 1000 (10^3) CFU per g product. The sausage was inoculated with 1% Inoculum (approximately 5 ml Inoculum per 500 gram ground meat). […]
Fifty μl of the homogenate or dilution was subsequently plated on MRS agar using an Eddyjet type 1.23 spiral plater (IUL Instruments, Barcelona, Spain). […] The colonies were counted with the Acolyte Supercount automatic colony counter (Synoptics, Cambridge, UK) using the Synoptics software package. […]

Aspergillus Niger = assay: visible growth of mould hyphae in MEA broth; settings: MEA broth pH 3.5, 14 days, 25° C., 10^4 spores per ml; xanthohumol 0.008 wt %, propionate 0.085 wt %
Method: (§1) Two molds, Aspergillus Niger and Penicillium roquefortii were tested on the combinatory effect of xanthohumol in combination with propionate. MEA broth was inoculated with spores of the fungi to a concentration of 10^4 spores per ml. In this example use has been made of the stock solution of xanthohumol as has been described in example 1 above. 4 ml of said stock solution was added to 96 ml of broth to obtain a 0.008% w/w solution in broth.
(§2) Propionate was added to an end concentration of 0.085% of propionate in broth. Also a solution was made with 0.008% w/w of xanthohumol and 0.085% of propionate in broth. As a control experiment broth without antimicrobial components was used. The pH of all media was set to 3.5. After 14 days of incubation at 25° C., the broth was inspected for visible growth of mould hyphae.

Penicillium roquefortii [2] = assay: visible growth of mould hyphae in MEA broth; settings: MEA broth pH 3.5, 14 days, 25° C., 10^4 spores per ml; xanthohumol 0.008 wt %, propionate 0.085 wt %
Method: as §1, §2

Lactobacillus plantarum [3] = assay: growth of Lactobacillus plantarum in food products (baby food, pasta sauce); settings: for Lactobacillus plantarum cell density: xanthohumol 0.004 mg/ml
Method: In this example, the influence of xanthohumol on growth of Lactobacillus plantarum in baby food and in pasta sauce was assessed. For this purpose the baby food was sterilized and the pH was adjusted at pH 4.8, and the pasta sauce was sterilized and the pH was adjusted to pH 4.2. At time-point t=0, three samples of both the baby food and the pasta sauce were inoculated with a Lactobacillus plantarum starter culture, at a final Lactobacillus cell density of approximately 1*10^4 cells/ml. For the baby food and the pasta sauce, one sample each was inoculated in the presence of 0.2% by weight xanthohumol composition to a final concentration of xanthohumol in the food product of 0.004 mg/ml. Lactobacillus plantarum cell density was determined in the food products at t=0 and at t=24 hours.

Aspergillus flavus = assay: mold outgrowth (OD) in semi-solid MEA agar, xanthohumol/calcium propionate gradient; settings: FIG. 4; day 13, pH 6; calcium propionate 0-0.5%, xanthohumol 0-0.00195%
Method: (§3) Five molds, Penicillium roquefortii, Aspergillus flavus, Fusarium oxysporum, Paecilomyces variotii, and Mucor plumbeus, were tested on the combinatory effect of xanthohumol combined with calcium propionate. In this example use has been made of a stock solution of 0.52% w/w XanthoFlav (equivalent to 0.0104% w/w xanthohumol) prepared in a similar manner as that described in example 1 above, as well as a stock solution of calcium propionate at 1.6% w/w. A modified semi-solid MEA agar was prepared by mixing 50 g of Malt Extract broth (Oxoid) with 7.5 g of Bacteriological Agar No. 1 (Oxoid) to create a 2× reduced agar MEA. This was autoclaved at 120° C. for 15 minutes. Bottles of this MEA were held at 50° C. until ready for inoculation, at which point they were inoculated with a single strain of the above listed molds at approximately 10^4 spores per ml. This level of inoculation ensures 500-1000 spores per well in the 96 well plate. All media was set to pH 6.
(§4) The 2×MEA was mixed with the stock solutions of xanthohumol, calcium propionate, and sterilized H2O as a diluent in 96 well plates using an automated plate filler to create a concentration gradient of calcium propionate ranging from 0% to 0.5% along one axis and xanthohumol from 0% to 0.00195% along the other axis. Wells containing 0% of both antimicrobials served as a control. This allowed for testing approximately 24 different combinations of the two antimicrobials on one plate. Each well contained 75 μL of inoculated 2× reduced agar MEA, 75 μL of a mix of antimicrobials/diluent, and was capped with 75 μL of paraffin oil after the agar had set. Ninety-six well plates were then sealed with an oxygen permeable membrane to prevent contamination of wells.
(§5) OD measurements were taken approximately once a day, and outgrowth (measured by an increase in OD) was tracked over time. Measurements at the final reading (day 13) were placed in a 3D graph to visualize the additive effects of the two antimicrobials as levels of each increased across the plate.

Mucor plumbeus = assay: as above; settings: FIG. 5; day 13, pH 6; calcium propionate 0-0.5%, xanthohumol 0-0.00195%
Method: as §3, §4, §5

Penicillium roquefortii [4] = assay: as above; settings: FIG. 1; day 13, pH 6; calcium propionate 0-0.5%, xanthohumol 0-0.00195%
Method: as §3, §4, §5

Paecilomyces variotii = assay: as above; settings: FIG. 3; day 13, pH 6; calcium propionate 0-0.5%, xanthohumol 0-0.00195%
Method: as §3, §4, §5

Fusarium oxysporum = assay: as above; settings: FIG. 2; day 13, pH 6; calcium propionate 0-0.5%, xanthohumol 0-0.00195%
Method: as §3, §4, §5

[5] = test system: Lactobacillus acidophilus; assay: minimum inhibitory concentration on lactic acid bacteria, overnight in MRS medium; settings: DSM20079, strain DSM 20079, 30° C., 10^5 cfu/ml, read-out: MIC calculated to xanthohumol
Method: (§6) One part xanthohumol Xantho-Flav Extract (with 2% of xanthohumol) on diatomaceous earth is incubated with 9 parts of hot water at 100° C., boiling for <1 minute while vigorously shaking. After incubation, solid material is discarded. This way, a stock solution with 10% of Xanthoflav or about 0.2% xanthohumol (2 mg/ml) is obtained, which is used in the following examples.
(§7) For testing the anti-microbial activity a test composition comprising xanthohumol was applied. The test composition was prepared as follows. At the highest concentration 100 μl of the xanthohumol stock solution at 2 mg/ml in water (See Example 1) was added to 100 μl of 2 times concentrated MRS medium, providing a test composition comprising 1 mg/ml by weight xanthohumol in MRS medium.
(§8) Pre-cultures of test bacteria were cultured using standard techniques. Bacteria were cultured in MRS medium 48 hrs before the start of the experiments.
(§9) Five μl of the bacterium pre-cultures was brought in 200 μl of test medium (medium+component+water) and mixed with a concentration series of the test composition comprising xanthohumol. Final bacterium density at the start of the overnight experiment was 10^5 cfu/ml. Xanthohumol was tested up to a concentration of 0.01 mg/ml (based on an addition level of up to 0.05% w/w of Xanthoflav). Negative control was inoculated broth, positive control was inoculated MRS medium. Bacterium cultures were cultured overnight at 30° C., under constant shaking. After incubation, the minimum inhibitory concentration for each test organism was scored (Table 1).

Lactobacillus plantarum [6] = assay: as above; settings: Lactiplantibacillus plantarum, 10^5 cfu/ml, read-out: MIC calculated to xanthohumol
Method: as §6, §7, §8, §9

Lactobacilllus curvatus = assay: as above; settings: 10^5 cfu/ml
Method: as §6, §7, §8, §9

Lactobacillus brevis = assay: as above; settings: Levilactobacillus brevis, 10^5 cfu/ml, read-out: MIC calculated to xanthohumol
Method: as §6, §7, §8, §9

[7] = test system: Leuconostoc mesenteroides; assay: as above; settings: strain AR049, 30° C., 10^5 cfu/ml, read-out: MIC calculated to xanthohumol
Method: as §6, §7, §8, §9

Lactobacillus farciminis = assay: as above; settings: Companilactobacillus farciminis, strain AR053, 30° C., 10^5 cfu/ml, read-out: MIC calculated to xanthohumol
Method: as §6, §7, §8, §9

C[C@@H]1OC(=O)[C@H](C)OC1=O [Nr 3: 0.8% Lactide, Lactide]
Shelf life of sausages, Days till 10^7 cfu/g ([1]; inoculated about 10^3 CFU per g, vacuum sealed, stored at 7° C., control 8.0): 12.5 Days
shelf life improvement as compared to the control ([1]; sausages stored at 7° C.): about 4 days

CCC(=O)O [propionate, reference compound]
visible growth of mould hyphae (Aspergillus Niger): Growth
visible growth of mould hyphae (Penicillium roquefortii [2]): Growth

COc1cc(O)c(CC=C(C)C)c(O)c1C(=O)/C=C/c1ccc(O)cc1 [xanthohumol]
visible growth of mould hyphae (Aspergillus Niger): Growth
visible growth of mould hyphae (Penicillium roquefortii [2]): Growth
Lactobacillus plantarum cell density (Lactobacillus plantarum [3]; baby food pH 4.8, 0 h): 3.8 × 10^4
Lactobacillus plantarum cell density (Lactobacillus plantarum [3]; baby food pH 4.8, 24 h, control 3 × 10^7): 3 × 10^4
inhibitory effect on Lactobacillus plantarum (Lactobacillus plantarum [3]; in baby food and pasta sauce): strong inhibitory effect
Lactobacillus plantarum cell density (Lactobacillus plantarum [3]; pasta sauce pH 4.2, 0 h): 3 × 10^4
Lactobacillus plantarum cell density (Lactobacillus plantarum [3]; pasta sauce pH 4.2, 24 h, control 6 × 10^5): <100
Inhibition of A. flavus (outgrowth by OD) (Aspergillus flavus): inhibiting effect by itself
Inhibition of M plumbeus (outgrowth by OD) (Mucor plumbeus): inhibiting effect by itself
Inhibition of P. roquefortii (outgrowth by OD) (Penicillium roquefortii [4]): inhibiting effect by itself
Inhibition of P. variotii (outgrowth by OD) (Paecilomyces variotii): inhibiting effect by itself
Inhibition of F. oxysporum (outgrowth by OD) (Fusarium oxysporum): inhibiting effect by itself
MIC [5]: 10 µg/mL (≈ 28.2 µM)
MIC (Lactobacillus plantarum [6]; DSM20174, strain DSM 20174, 30° C.): 4 µg/mL (≈ 11.3 µM)
MIC (Lactobacillus plantarum [6]; strain AR052, 30° C.): 2 µg/mL (≈ 5.64 µM)
MIC calculated to xanthohumol (Lactobacilllus curvatus; strain AR095, 30° C.): 0.01 mg/mL (≈ 28.2 µM)
MIC (Lactobacilllus curvatus; strain Zand 2, 30° C., read-out: MIC calculated to xanthohumol): 10 µg/mL (≈ 28.2 µM)
MIC (Lactobacillus brevis; LMG6906, strain LMG 6906, 30° C.): 2 µg/mL (≈ 5.64 µM)
MIC (Lactobacillus brevis; strain AR043, 30° C.): 2 µg/mL (≈ 5.64 µM)
MIC [7]: 2 µg/mL (≈ 5.64 µM)
MIC (Lactobacillus farciminis): 4 µg/mL (≈ 11.3 µM)
